The values that follow come from US20240207253A1, “Inhibitors of CDR1 for Reversal of Azole Drug Resistance in Fungal Infections” (UNM RAINFOREST INNOVATIONS, priority 2021, published 2024).

Experiment [1] relates to C. albicans strain 5674. Description: Adenylate kinase (AK) release assay on assay supernatant. Format: cell-based. The note with it: caspofungin 50 ng/ml, positive control.
Procedure: In addition to the output from the dose-response assays, we included an experimental step designed to identify compounds with fungicidal potential. Specifically, the inventors used the assay supernatant to interrogate for the presence of adenylate kinase (AK), an enzyme that is released from the cells when the cell wall or plasma membrane integrity is compromised. Low-dose caspofungin (50 ng/ml), an echinocandin known for its antifungal property due to disruption of the cell wall, was used as a positive control.
In experiment [2] the test system is C. glabrata AR Bank #0314. Description: CLSI microbroth dilution checkerboard assay with fluconazole. Format: cell-based. The note with it: Nakaseomyces glabratus; fluconazole alone. How it is done:
(§1) Overexpression of Cdr1p has been implicated in azole resistance in many fluconazole-resistant fungal pathogens. […] The inventors used the CLSI microbroth dilution method of antifungal susceptibility testing in a checkerboard assay format, where serial 2-fold dilutions of FLC (from 64 μg/ml) were tested in combination with serial 2-fold dilutions of a candidate hit compound (from 50 μg/ml). […] The data from three biological replicates was next used to assess synergy between each compound of interest and FLC. For these purposes, the inventors used the program SynScreen, which extrapolates non-linear fits of dose-response data to determine synergy using the Bliss independence and Loewe additivity analysis models. […] The Bliss Beta coefficient that the program calculates for all combinations further describes potential synergism (if >1), antagonism (if <1), or an additive effect (equal to 1).
(§2) For the purposes of reporting the effect of the test compound on FLC potentiation, the inventors excluded from analyses rows of combinations where TPIML compound alone affects yeast growth. C. krusei are intrinsically resistant to azoles and is predominantly due to a significant reduction of inhibition of the target, cytochrome P450 lanosterol 14α-demethylase, though the role of increased expression of the CaCdr1p homolog in resistance has also been described.
For orientation: In broth dilution the organism is exposed to a series of concentrations in liquid medium.

The subject of experiment [3] is C. krusei reference strain, ATCC 6258. Described as above. As to conditions: Pichia kudriavzevii, ATCC6258; fluconazole alone. Type of experiment: cell-based. How it is done:
as §1, §2

For experiment [4], the system named is C. parapsilosis AR Bank #0337. The experiment is described as above. As to conditions: Lodderomyces parapsilosis; fluconazole alone. Type of experiment: cell-based. As for the experimental part:
as §1, §2

Experiment [5] relates to Cdr1p-GFP. Description: Cdr1p-GFP whole cell fluorescence-based flow cytometry assay (primary screen and dose response). Set-up: species or system C. albicans. The note with it: 10 μM, positive control, isolate 5674 CDR1-GFP.
Source text: Utilizing the novel approach of inhibition of CDR1 (Cdr1p) expression, initial experiments were directed to screening libraries of small molecules using a high-throughput whole cell fluorescence-based flow cytometry assay to identify agents that inhibit expression of CDR1-GFP in an azole-resistant C. albicans strain.
Each sample in the scaffold ranking screen contains only mixtures of compounds with the shared core scaffold. All compounds in a specific mixture are represented in approximately equal molar concentrations. The inventors performed the screen using the C. albicans azole-resistant, clinical isolate 5674, which was modified to carry a CDR1 allele tagged with GFP-encoding sequence. Modulation of Cdr1p-GFP levels in response to scaffold mixtures was assessed relative to basal levels (Response Ratio), from which scaffolds were ranked. […] The inventors used tacrolimus at 10 μM concentration as positive control in all screening assays.
The assay readout, GFP fluorescence levels as detected by a flow cytometer, is directly related to the levels of Cdr1p of the cell. Thus, flow cytometry data from each screen provides direct evidence that Cdr1p is modulated by hit compounds. […] False-positive hits were identified in follow-up dose-response assays where the effect of serial dilutions of each compound on Cdr1p-GFP levels was assessed.

`CC[C@H](C)C[C@H](C)CCCCCCCCC(=O)N[C@H]1C[C@@H](O)[C@@H](NCCN)NC(=O)[C@@H]2[C@@H](O)CCN2C(=O)[C@H]([C@H](O)CCN)NC(=O)[C@H]([C@H](O)[C@@H](O)c2ccc(O)cc2)NC(=O)[C@@H]2C[C@@H](O)CN2C(=O)[C@H]([C@@H](C)O)NC1=O` [caspofungin] gave an AK fold-increase in experiment [1] of 27.

On to `OC(Cn1cncn1)(Cn1cncn1)c1ccc(F)cc1F` [fluconazole], for which the MIC50 in experiment [2] worked out at 64 µg/mL; in experiment [3], 8 µg/mL; in experiment [4], 64 µg/mL.

On to `C=CC[C@@H]1/C=C(\C)C[C@H](C)C[C@H](OC)[C@H]2O[C@@](O)(C(=O)C(=O)N3CCCC[C@H]3C(=O)O[C@H](/C(C)=C/[C@@H]3CC[C@@H](O)[C@H](OC)C3)[C@H](C)[C@@H](O)CC1=O)[C@H](C)C[C@@H]2OC` [tacrolimus], for which the “Response Ratio (Cdr1p-GFP levels relative to basal levels)” value in experiment [5] was found to be 0.8.

Broadly, the MIC50 is the lowest concentration that inhibits either 50% of growth or 50% of the strains tested, depending on the study.
